Measured values from patent publication US20230219904A1 (SYNGENTA CROP PROTECTION AG, priority 2020, published 2023).

Experiments:
Assay type in all cases: in vivo
Settings in all cases: evaluated after 13 days
[1] = tested on: Abutilon theophrasti (ABUTH); assay: Pre-emergence herbicidal glasshouse test (Table B1)
Summary of the method: (§1)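 Damage is rated 13 days after treatment on a 1–5 scale (5 = 80–100%). Application, usually 500 g/h in acetone/water (50:50) with 0.5% Tween 20, is made one day post-sowing for pre-emergence or eight days for post-emergence; glasshouse at 24/16 °C, 14 h light, 65% humidity.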

[2] = tested on: Echinochloa crus-galh (ECHCG); assay: as above
Summary of the method: as §1

[3] = tested on: Setaria faberi (SETFA); assay: as above
Summary of the method: as §1

[4] = tested on: Amaranthus retoflexus (AMARE); assay: as above
Summary of the method: as §1

[5] = tested on: Ipomoea hederacea (IPOHE); assay: as above
Summary of the method: as §1

[6] = tested on: Abutilon theophrasti (ABUTH); assay: Post-emergence herbicidal glasshouse test (Table B1)
Summary of the method: as §1

[7] = tested on: Echinochloa crus-galh (ECHCG); assay: as above
Summary of the method: as §1

[8] = tested on: Setaria faberi (SETFA); assay: as above
Summary of the method: as §1

[9] = tested on: Amaranthus retoflexus (AMARE); assay: as above
Summary of the method: as §1

[10] = tested on: Ipomoea hederacea (IPOHE); assay: as above
Summary of the method: as §1

Compound: CCN(C(=O)C(C)F)c1c(OC(F)F)ccc(C(=O)Nc2nnnn2C)c1Cl (stereo not drawn) [Compound 1.026]
- PRE Application ABUTH, percentage damage on five-point scale ([1]; applied at 125 g/ha): 5 (5=80-100%)
- PRE Application ECHCG, percentage damage on five-point scale ([2]; applied at 125 g/ha): 5 (5=80-100%)
- PRE Application SETFA, percentage damage on five-point scale ([3]; applied at 125 g/ha): 5 (5=80-100%)
- PRE Application AMARE, percentage damage on five-point scale ([4]; applied at 125 g/ha): 5 (5=80-100%)
- PRE Application IPOHE, percentage damage on five-point scale ([5]; applied at 125 g/ha): 4 (4=60-79%)
- POST Application ABUTH, percentage damage on five-point scale ([6]; applied at 125 g/ha): 4 (4=60-79%)
- POST Application ECHCG, percentage damage on five-point scale ([7]; applied at 125 g/ha): 5 (5=80-100%)
- POST Application SETFA, percentage damage on five-point scale ([8]; applied at 125 g/ha): 4 (4=60-79%)
- POST Application AMARE, percentage damage on five-point scale ([9]; applied at 125 g/ha): 4 (4=60-79%)
- POST Application IPOHE, percentage damage on five-point scale ([10]; applied at 125 g/ha): 4 (4=60-79%)

Compound: COc1ccc(C(=O)Nc2nnnn2C)c(Cl)c1NC(=O)C(C)F (stereo not drawn) [Compound 1.028, 2-chloro-3-(2-fluoropropanoylamino)-4-methoxy-N-(1-methyltetrazol-5-yl)benzamide]
- PRE Application ABUTH, percentage damage on five-point scale ([1]; applied at 500 g/h): 5 (5=80-100%)
- PRE Application ECHCG, percentage damage on five-point scale ([2]; applied at 500 g/h): 4 (4=60-79%)
- PRE Application SETFA, percentage damage on five-point scale ([3]; applied at 500 g/h): 3 (3=40-59%)
- PRE Application AMARE, percentage damage on five-point scale ([4]; applied at 500 g/h): 5 (5=80-100%)
- PRE Application IPOHE, percentage damage on five-point scale ([5]; applied): 3 (3=40-59%)
- POST Application ABUTH, percentage damage on five-point scale ([6]; applied at 500 g/h): 5 (5=80-100%)
- POST Application ECHCG, percentage damage on five-point scale ([7]; applied at 500 g/h): 3 (3=40-59%)
- POST Application SETFA, percentage damage on five-point scale ([8]; applied at 500 g/h): 4 (4=60-79%)
- POST Application AMARE, percentage damage on five-point scale ([9]; applied at 500 g/h): 5 (5=80-100%)
- POST Application IPOHE, percentage damage on five-point scale ([10]; applied at 500 g/h): 4 (4=60-79%)

Compound: COc1ccc(C(=O)Nc2nnnn2C)c(Cl)c1NC(=O)C1CC1 [Compound 1.029]
- PRE Application ABUTH, percentage damage on five-point scale ([1]; applied at 500 g/h): 5 (5=80-100%)
- PRE Application ECHCG, percentage damage on five-point scale ([2]; applied at 500 g/h): 5 (5=80-100%)
- PRE Application SETFA, percentage damage on five-point scale ([3]; applied at 500 g/h): 5 (5=80-100%)
- PRE Application AMARE, percentage damage on five-point scale ([4]; applied at 500 g/h): 5 (5=80-100%)
- PRE Application IPOHE, percentage damage on five-point scale ([5]; applied): 4 (4=60-79%)
- POST Application ABUTH, percentage damage on five-point scale ([6]; applied at 500 g/h): 5 (5=80-100%)
- POST Application ECHCG, percentage damage on five-point scale ([7]; applied at 500 g/h): 5 (5=80-100%)
- POST Application SETFA, percentage damage on five-point scale ([8]; applied at 500 g/h): 5 (5=80-100%)
- POST Application AMARE, percentage damage on five-point scale ([9]; applied at 500 g/h): 5 (5=80-100%)
- POST Application IPOHE, percentage damage on five-point scale ([10]; applied at 500 g/h): 5 (5=80-100%)

Compound: COc1ccc(C(=O)Nc2nnnn2C)c(Cl)c1NC(C)=O [Compound 1.030, 3-acetamido-2-chloro-4-methoxy-N-(1-methyltetrazol-5-yl)benzamide]
- PRE Application ABUTH, percentage damage on five-point scale ([1]; applied at 500 g/h): 5 (5=80-100%)
- PRE Application ECHCG, percentage damage on five-point scale ([2]; applied at 500 g/h): 3 (3=40-59%)
- PRE Application SETFA, percentage damage on five-point scale ([3]; applied at 500 g/h): 3 (3=40-59%)
- PRE Application AMARE, percentage damage on five-point scale ([4]; applied at 500 g/h): 5 (5=80-100%)
- PRE Application IPOHE, percentage damage on five-point scale ([5]; applied): 3 (3=40-59%)
- POST Application ABUTH, percentage damage on five-point scale ([6]; applied at 500 g/h): 5 (5=80-100%)
- POST Application ECHCG, percentage damage on five-point scale ([7]; applied at 500 g/h): 5 (5=80-100%)
- POST Application SETFA, percentage damage on five-point scale ([8]; applied at 500 g/h): 5 (5=80-100%)
- POST Application AMARE, percentage damage on five-point scale ([9]; applied at 500 g/h): 5 (5=80-100%)
- POST Application IPOHE, percentage damage on five-point scale ([10]; applied at 500 g/h): 4 (4=60-79%)

Compound: CC(=O)Nc1c(OC(F)(F)C(F)F)ccc(C(=O)Nc2nnnn2C)c1Cl [Compound 1.031]
- PRE Application ABUTH, percentage damage on five-point scale ([1]; applied at 125 g/ha): 4 (4=60-79%)
- PRE Application ECHCG, percentage damage on five-point scale ([2]; applied at 125 g/ha): 4 (4=60-79%)
- PRE Application SETFA, percentage damage on five-point scale ([3]; applied at 125 g/ha): 3 (3=40-59%)
- PRE Application AMARE, percentage damage on five-point scale ([4]; applied at 125 g/ha): 5 (5=80-100%)
- PRE Application IPOHE, percentage damage on five-point scale ([5]; applied at 125 g/ha): 3 (3=40-59%)
- POST Application ABUTH, percentage damage on five-point scale ([6]; applied at 125 g/ha): 4 (4=60-79%)
- POST Application ECHCG, percentage damage on five-point scale ([7]; applied at 125 g/ha): 4 (4=60-79%)
- POST Application SETFA, percentage damage on five-point scale ([8]; applied at 125 g/ha): 4 (4=60-79%)
- POST Application AMARE, percentage damage on five-point scale ([9]; applied at 125 g/ha): 4 (4=60-79%)
- POST Application IPOHE, percentage damage on five-point scale ([10]; applied at 125 g/ha): 4 (4=60-79%)

Compound: Cn1nnnc1NC(=O)c1ccc(OC(F)(F)F)c(NC(=O)C2CC2(F)F)c1Cl (stereo not drawn) [Compound 1.032]
- PRE Application ABUTH, percentage damage on five-point scale ([1]; applied at 500 g/h): 5 (5=80-100%)
- PRE Application ECHCG, percentage damage on five-point scale ([2]; applied at 500 g/h): 5 (5=80-100%)
- PRE Application SETFA, percentage damage on five-point scale ([3]; applied at 500 g/h): 5 (5=80-100%)
- PRE Application AMARE, percentage damage on five-point scale ([4]; applied at 500 g/h): 5 (5=80-100%)
- PRE Application IPOHE, percentage damage on five-point scale ([5]; applied): 3 (3=40-59%)
- POST Application ABUTH, percentage damage on five-point scale ([6]; applied at 500 g/h): 5 (5=80-100%)
- POST Application ECHCG, percentage damage on five-point scale ([7]; applied at 500 g/h): 5 (5=80-100%)
- POST Application SETFA, percentage damage on five-point scale ([8]; applied at 500 g/h): 5 (5=80-100%)
- POST Application AMARE, percentage damage on five-point scale ([9]; applied at 500 g/h): 5 (5=80-100%)
- POST Application IPOHE, percentage damage on five-point scale ([10]; applied at 500 g/h): 5 (5=80-100%)
